Experimental data from patent US12440567B2, “Aqueous antibody formulation stabilized by antioxidants for parenteral administration” (AMGEN INC., priority 2007, dated 2025).
Each block holds one compound with its values, some of them ahead of it.

Tests used:
[1] = tested on: Antibody A (IgG1); experiment: SEC-HPLC aggregation of Antibody A (IgG1) after UV-B exposure; format: physicochemical; details: for UV-B protection of Antibody A (aggregation, SEC-HPLC): Antibody A 1 mg/mL, pH 4.50 (glycolic, lactic acid) or pH 5.00 (citric acid), UV 1 hr
[2] = tested on: Antibody B binding to protein A; experiment: Binding of Antibody B to protein A after UV-B exposure of the formulation; details: 20 mM additive; pH 6.90 phosphate buffer; 0-24 hours UV-B
Procedure: (§1) For the examples below involving exposure to UVB radiation, each sample was exposed to UVB light (λ≈302 nm) for varying times, using a UVP 8W model UVLMS-38 lamp at 4° C. The formulations were then analyzed using size exclusion chromatography high pressure liquid chromatography (SEC-HPLC). Aggregation (measured via SEC-HPLC analysis) and binding (measured using CM5 gold sensor chips) were measured to determine the effect of the antioxidant on aggregation and bioactivity of the therapeutic protein.
The binding activity of therapeutic protein to a ligand (e.g. to an antibody or binding partner, or, in cases where the therapeutic was an antibody, binding activity to the specific target antigen or to protein A) was determined as follows. […] The therapeutic protein-binding ligand of interest was injected until the desired immobilization level was achieved (above 5000 response units). Three different therapeutic protein-binding ligands were measured—Antibody A's target antigen, Protein A, and D11 (an antibody that binds to erythropoietin). […] The remaining activated groups were blocked with 1.0 M ethanolamine-HCl, pH 8.5.
A standard curve was prepared by using native forms of the therapeutic protein of interest. Native forms of the therapeutic protein were diluted in HBS-EP buffer (pH 7.4) to concentrations between 1 and 5 μg/mL, and then injected on the column, prepared as described above to obtain a standard curve. At the end of each sample run, regeneration buffer was used to wash away any bound therapeutic protein in preparation for subsequent injections.
Various UV-stressed antibody formulations were also diluted in HBS-EP buffer (pH 7.4) to a concentration within the standard curve region, and injected to quantitate the loss of bioactivity to its respective ligand-binding partner.

[3] = tested on: EPO binding to D11; experiment: Binding of EPO to D11 monoclonal antibody after UV-B exposure of the formulation; design: species or system human; details: for EPO binding activity to D11 during UV-B exposure: 0.1 mM antioxidant, UV-B up to 24 hours
Procedure: For the examples below involving exposure to UVB radiation, each sample was exposed to UVB light (λ≈302 nm) for varying times, using a UVP 8W model UVLMS-38 lamp at 4° C. The formulations were then analyzed using size exclusion chromatography high pressure liquid chromatography (SEC-HPLC). Aggregation (measured via SEC-HPLC analysis) and binding (measured using CM5 gold sensor chips) were measured to determine the effect of the antioxidant on aggregation and bioactivity of the therapeutic protein. The binding activity of therapeutic protein to a ligand (e.g. to an antibody or binding partner, or, in cases where the therapeutic was an antibody, binding activity to the specific target antigen or to protein A) was determined as follows. […] The therapeutic protein-binding ligand of interest was injected until the desired immobilization level was achieved (above 5000 response units). Three different therapeutic protein-binding ligands were measured—Antibody A's target antigen, Protein A, and D11 (an antibody that binds to erythropoietin). […] The remaining activated groups were blocked with 1.0 M ethanolamine-HCl, pH 8.5. A standard curve was prepared by using native forms of the therapeutic protein of interest. Native forms of the therapeutic protein were diluted in HBS-EP buffer (pH 7.4) to concentrations between 1 and 5 μg/mL, and then injected on the column, prepared as described above to obtain a standard curve. At the end of each sample run, regeneration buffer was used to wash away any bound therapeutic protein in preparation for subsequent injections. Various UV-stressed antibody formulations were also diluted in HBS-EP buffer (pH 7.4) to a concentration within the standard curve region, and injected to quantitate the loss of bioactivity to its respective ligand-binding partner. […] The protein was exposed to the same conditions as Antibody A and Antibody B for up to 24 hours.

[4] = tested on: EPO; experiment: SEC-HPLC aggregation/degradation of EPO after UV-B exposure; format: physicochemical, human; details: 20 mM antioxidant; 1 mg/mL EPO, 25 mM sodium phosphate, 125 mM sodium chloride, pH 6.90; 302 nm UV-B 24 hours
Procedure: as §1, with “protein. The SEC-HPLC conditions were as follows: a G3000 TOSOH SWXL column was used and the flowrate was set at 0.5 mL/min. […] FIG. 4 (EPO), FIG. 5 (anti-streptavidin), and FIG. 6 (Antibody A) show SEC-HPLC chromatograms of each proteins following exposure to 302 nm UV-B light for 24 hours. […] Each formulation was then exposed to 302 nm UV-B light for 24 hours. The protein formulation was then analyzed using SEC-HPLC.” for “protein.”

[5] = tested on: Antibody A binding to its target antigen; experiment: Binding of Antibody A to its target antigen (CM5 sensor chip) after UV-B exposure of the formulation; details: 20 mM antioxidant; pH 5.20 acetate buffer; 302 nm UV light over 24 hours
Procedure: (§2) For the examples below involving exposure to UVB radiation, each sample was exposed to UVB light (λ≈302 nm) for varying times, using a UVP 8W model UVLMS-38 lamp at 4° C. The formulations were then analyzed using size exclusion chromatography high pressure liquid chromatography (SEC-HPLC). Aggregation (measured via SEC-HPLC analysis) and binding (measured using CM5 gold sensor chips) were measured to determine the effect of the antioxidant on aggregation and bioactivity of the therapeutic protein. The binding activity of therapeutic protein to a ligand (e.g. to an antibody or binding partner, or, in cases where the therapeutic was an antibody, binding activity to the specific target antigen or to protein A) was determined as follows. […] The therapeutic protein-binding ligand of interest was injected until the desired immobilization level was achieved (above 5000 response units). Three different therapeutic protein-binding ligands were measured—Antibody A's target antigen, Protein A, and D11 (an antibody that binds to erythropoietin). […] The remaining activated groups were blocked with 1.0 M ethanolamine-HCl, pH 8.5. […] Various UV-stressed antibody formulations were also diluted in HBS-EP buffer (pH 7.4) to a concentration within the standard curve region, and injected to quantitate the loss of bioactivity to its respective ligand-binding partner.

[6] = tested on: Antibody A binding to protein A; experiment: Binding of Antibody A to protein A (CM5 sensor chip) after UV-B exposure of the formulation; details: 20 mM antioxidant; pH 5.20 acetate buffer; 302 nm UV light over 24 hours
Procedure: as §2

[7] = tested on: anti-streptavidin mAb (IgG2); experiment: SEC-HPLC aggregation of anti-streptavidin (IgG2) after UV-B exposure; format: physicochemical; details: 20 mM antioxidant; 1 mg/mL anti-streptavidin, 10 mM sodium acetate, 5% sorbitol, pH 5.00; 302 nm UV-B 24 hours
[8] = cited from earlier work
[9] = Color change of the antioxidant upon light; format: physicochemical
Source text: P-amino benzoic acid (PABA) has a relatively powerful antioxidant effect.

[10] = tested on: Antibody A; experiment: Discoloration (yellowing) of Antibody A formulations after UV-B exposure; format: physicochemical; details: 20 mM and 50 mM pyridoxine; Antibody A 30 mg/mL; UV-B 4 hours
[11] = tested on: anti-streptavidin (IgG2 antibody); experiment: Thermal aggregation of anti-streptavidin at 52° C. for 10 days; format: physicochemical; details: 5% glycerol; anti-streptavidin, 50 mM sodium acetate pH 5.00; 10 days 52° C.
Procedure: The SEC-HPLC conditions were as follows: a G3000 TOSOH SWXL column was used and the flowrate was set at 0.5 mL/min. […] Anti-streptavidin was formulated in 50 mM sodium acetate at pH 5.00. These formulations were not exposed to UV radiation but assessed on their thermal stability.

[12] = PABA: doses as high as 12 grams per day; cited from earlier work
[13] = 20 mM benzoic acid derivative, Antibody A 5 mg/mL, 20 mM sodium acetate pH 5.00, UV-B 4° C. 3 hours
[14] = 5 mM or 1 mM preservative, Antibody A 1 mg/mL pH 5.00, UV 3 hours
[15] = 100 mM, Antibody A 1 mg/mL pH 5.00, UV 3 hours

Compound: O=C(O)c1cc(O)c(O)c(O)c1 [gallic acid]
aggregation of Antibody A (SEC-HPLC) [1, 13]: able to significantly decrease the amount of aggregation

Compound: O=C(O)c1ccc(O)cc1 [p-hydroxybenzoic acid]
aggregation of Antibody A (SEC-HPLC) [1, 13]: able to significantly decrease the amount of aggregation

Compound: Oc1ccccc1 [phenol]
aggregation of Antibody A (SEC-HPLC) [1, 14]: able to significantly decrease the amount of aggregation

Compound: COc1cc(C(=O)O)ccc1O [vanillic acid]
aggregation of Antibody A (SEC-HPLC) [1, 13]: able to significantly decrease the amount of aggregation

Compound: O=C(O)c1ccc(O)c(O)c1 [protocatechuic acid]
aggregation of Antibody A (SEC-HPLC) [1, 13]: able to significantly decrease the amount of aggregation

binding of Antibody B to protein A after UV-B exposure [2]: prevented UV-B induced degradation | binding of EPO to D11 mAb after UV light exposure ([3]; 20 mM antioxidant, up to 24 hours UV): able to significantly preserve | amount of aggregate of EPO (SEC-HPLC) [4]: dramatically reduced | binding of Antibody A to its target antigen after UV exposure [5]: preserved | binding of Antibody A to protein A after UV exposure [6]: preserved | amount of aggregate of anti-streptavidin (SEC-HPLC) [7]: dramatically reduced | amount of aggregate of Antibody A (SEC-HPLC) ([1]; 20 mM antioxidant, 1 mg/mL Antibody A, 10 mM sodium acetate, 9% sucrose, pH 5.20, 302 nm UV-B 24 hours): dramatically reduced
Compound: O=C(/C=C/c1ccc(O)c(O)c1)O[C@@H]1C[C@](O)(C(=O)O)C[C@@H](O)[C@H]1O [chlorogenic acid]

EPO binding to D11 after UV ([3]; 5 mM sulisobenzone, EPO 40 kU/mL, pH 6.90, UV 0-8 hours at 4° C.): able to protect EPO binding to D11
Compound: COc1cc(O)c(C(=O)c2ccccc2)cc1S(=O)(=O)O [sulisobenzone]

Compound: COc1cc(C(=O)O)cc(OC)c1O [syringic acid]
aggregation of Antibody A (SEC-HPLC) [1, 13]: able to significantly decrease the amount of aggregation

Compound: O=C(O)/C=C/c1ccc(O)c(O)c1 [caffeic acid]
EPO binding activity to D11 during UV-B exposure [3]: able to protect the EPO from degradation and preserve its binding activity

Compound: O=C(O)/C=C/C(=O)O [fumaric acid]
aggregation of Antibody A (SEC-HPLC) [1, 15]: able to protect Antibody A from aggregation

Compound: catechin
percent binding of EPO to D11 after UV ([3]; 20 mM catechin, EPO 40 kU/mL, 25 mM sodium phosphate, 125 mM sodium chloride, 0.005% Tween-80, pH 6.90, UV 0-8 hours): able to preserve EPO binding

Compound: Cc1cccc(O)c1 [m-cresol]
aggregation of Antibody A (SEC-HPLC) [1, 14]: able to significantly decrease the amount of aggregation

UV-B protection of Antibody A (aggregation, SEC-HPLC) ([1]; 100 mM): fairly weak
Compound: O=C(O)CC(O)(CC(=O)O)C(=O)O [citric acid]

Compound: Oc1cc(O)c2c(c1)O[C@H](c1ccc(O)c(O)c1)[C@H](O)C2 [epicatechin]
solubility [8]: limited solubility

Compound: O=C(O)C1=C[C@@H](O)[C@@H](O)[C@H](O)C1 [shikimic acid]
aggregation of Antibody A (SEC-HPLC) [1, 15]: able to protect Antibody A from aggregation

Compound: COc1cc(/C=C/C(=O)O)cc(OC)c1O [sinapic acid]
EPO binding activity to D11 during UV-B exposure [3]: able to protect the EPO from degradation and preserve its binding activity

appearance of formulation upon exposure to UV radiation [10]: caused the formulation to appear yellow
Compound: Cc1ncc(CO)c(CO)c1O [pyridoxine]
color change upon light [9]: changes to an orange-brown color upon light | solubility [8]: highly soluble | oxidation and aggregation of Antibody A ([1]; 20 mM and 50 mM pyridoxine, Antibody A 30 mg/mL, UV-B 4 hours): did protect the protein from oxidation and aggregation

aggregation of Antibody A ([1]; 25 mM cytosine (FIG. 21), Antibody A 1 mg/mL pH 5.00, UV 1, 2, or 3 hours): able to prevent aggregation
Compound: Nc1cc[nH]c(=O)n1 [Cytosine, cytosine]

effect of added glycerol on thermal aggregation caused by ferulic and coumaric acid [11]: counter-acted that thermal aggregation
Compound: OCC(O)CO [glycerol]

Compound: CCCOC(=O)c1cc(O)c(O)c(O)c1 [Propyl gallate, propyl gallate]
aggregation of Antibody A (SEC-HPLC) ([1]; 10 mM propyl gallate, pH 5.00, UV 3 hours): able to significantly reduce the amount of aggregation

EPO activity (binding to D11) after UV-B ([3]; 20 mM racemic N-acetyl-tryptophan, 40 kU/mL EPO pH 6.90, UV 0 to 24 hours): preserved
Compound: CC(=O)N[C@@H](Cc1c[nH]c2ccccc12)C(=O)O (racemic) [N-acetyl-tryptophan]
solubility [8]: more soluble than free tryptophan

UV-B protection of Antibody A (aggregation, SEC-HPLC) ([1]; 100 mM): most effective
Compound: O=C(O)CO [Glycolic acid, glycolic acid]

Compound: Cc1ncc(C[n+]2csc(CCO)c2C)c(N)n1 [Thiamine, thiamine]
solubility [8]: more soluble than the cinnamic acids or the benzoic acid derivatives | aggregation of Antibody A (SEC-HPLC) ([1]; thiamine as low as 5 mM, Antibody A 3 mg/mL, UV-B 4 hours): able to significantly inhibit Antibody A aggregation | toxicity in humans [12]: no known toxicity
